Measured values reported in patent US20260174875A1 (Novo Nordisk A/S, priority 2023, published 2026).
pEC50: −log10 of the molar value. Like-named read-outs stand apart in the source and are kept apart here. Numbered stars: 1 amine (or outer) side, 2 acyl side, 3 side chain; on linkers, the order of the positions; unused ones are H or OH. Square brackets hold non-standard residues; d marks the D form. Side chains are listed from the residue outwards. * marks the point of attachment. C20 diacid = O=C(O)CCCCCCCCCCCCCCCCCCC(=O)*; C18 diacid = O=C(O)CCCCCCCCCCCCCCCCC(=O)*; C16 diacid = O=C(O)CCCCCCCCCCCCCCC(=O)*; γGlu = O=C(O)[C@H](CCC(=O)[*:2])N[*:1]; AEEA = NCCOCCOCC(=O)O; Aib = CC(C)(N)C(=O)O

Columns and labels:
[1] = molecular target: T1, human GIP receptor (hGIPR) (Homo sapiens, UniProt P48546); experiment: GIP receptor assay, method A (CRE-luciferase reporter, BHK cells); type: cell-based
T1 construct: expressed in transfected cells
T1 sequence (P48546 22-466): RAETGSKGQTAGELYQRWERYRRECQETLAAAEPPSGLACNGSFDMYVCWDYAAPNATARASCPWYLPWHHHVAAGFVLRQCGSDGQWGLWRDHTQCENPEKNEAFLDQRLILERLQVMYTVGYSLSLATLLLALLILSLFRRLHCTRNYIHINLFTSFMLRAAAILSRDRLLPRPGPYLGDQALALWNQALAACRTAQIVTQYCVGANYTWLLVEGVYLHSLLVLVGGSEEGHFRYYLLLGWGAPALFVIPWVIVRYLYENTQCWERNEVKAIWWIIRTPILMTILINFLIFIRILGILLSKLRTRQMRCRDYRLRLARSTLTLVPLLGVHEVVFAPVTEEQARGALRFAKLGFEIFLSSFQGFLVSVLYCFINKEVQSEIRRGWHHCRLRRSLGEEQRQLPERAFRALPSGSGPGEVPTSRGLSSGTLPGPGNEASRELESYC
In short: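 BHK cells co-expressing hGIPR and a CRE-luciferase reporter, plated 21-23 h before assay, stimulated 3 h at 37 °C with compounds (7-point 10-fold titration, duplicates) in ovalbumin-containing DMEM buffer with or without 1% HSA final. Luminescence read; EC50 (pM) from four-parameter logistic fit with shared Hill slope.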

[2] = molecular target: T2, human GLP-1 receptor (hGLP-1R) (Homo sapiens, UniProt P43220); experiment: GLP-1 receptor assay, method A (CRE-luciferase reporter, BHK cells); type: cell-based
T2 construct: expressed in transfected cells
T2 sequence (P43220 24-463): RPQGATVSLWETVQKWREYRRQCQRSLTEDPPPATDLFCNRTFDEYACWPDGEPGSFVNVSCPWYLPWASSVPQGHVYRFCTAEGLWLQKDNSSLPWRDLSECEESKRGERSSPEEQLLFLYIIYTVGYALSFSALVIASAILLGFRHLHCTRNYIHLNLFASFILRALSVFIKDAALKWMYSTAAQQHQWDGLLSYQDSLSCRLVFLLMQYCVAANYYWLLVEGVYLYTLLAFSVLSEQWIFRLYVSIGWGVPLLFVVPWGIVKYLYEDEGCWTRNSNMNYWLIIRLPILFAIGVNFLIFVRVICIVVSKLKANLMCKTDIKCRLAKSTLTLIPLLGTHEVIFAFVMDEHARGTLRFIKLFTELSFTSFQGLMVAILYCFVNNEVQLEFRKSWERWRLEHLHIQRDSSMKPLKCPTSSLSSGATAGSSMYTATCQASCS
In short: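 BHK cells expressing hGLP-1R with CRE-luciferase reporter, stimulated 3 h at 37 °C, 5% CO2, in phenol-red-free DMEM with 10 mM HEPES, 1% ovalbumin, 0.1% Pluronic F-68, without or with 1% (w/v) HSA. Receptor activation read as luminescence after 30 min with steadylite Plus.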

[3] = hGIPR Potency, 1% HSA, EC50, method A, in the presence of 1% HSA
[4] = method A, absence of HSA, read-out: hGIPR Potency, no HSA, EC50
[5] = hGLP-1R Potency, 1% HSA, EC50, method A, in the presence of 1% HSA
[6] = hGIPR Potency, no HSA, EC50, method A, absence of HSA
[7] = hGLP-1R Potency, no HSA, EC50, method A, absence of HSA
[8] = method A, absence of HSA, read-out: hGLP-1R Potency, no HSA, EC50

Substance | pEC50 [1, 3] | pEC50 [1, 4] | pEC50 [2, 5] | pEC50 [1, 6] | pEC50 [2, 7] | pEC50 [2, 8] | potency ratio (A/B): highest EC50 divided by lowest EC50 over hGLP-1R, hGIPR, hAMYR3 ([2]; absence of HSA, <50 = balanced tri-agonist)
H[Aib]HGTFTSDYSILLEEQAAREFIEWLLAGGPSK([AEEA-AEEA-γGlu-C16 diacid])GAPPPSGGGEASELSTAALGRLSAELHELATLPRTETGSGSP-NH2 [Compound 12] | 10.23 | 11.58 | 10.99 | – | – | – | –
H[Aib]HGTFTSDYSILLEEQAAREFIEWLLAGGPSK([AEEA-AEEA-γGlu-C16 diacid])GAPPPSGGGEASHLSTAQTARLSAELHRLADLPRTETGSGSP-NH2 [Compound 61] | 10.80 | – | 10.83 | 11.89 | 11.55 | – | –
H[Aib]HGTFTSDYSILLEEQAAREFIEWLLAGGPSK([AEEA-AEEA-γGlu-C16 diacid])GEASELSTAALGRLSAELHRLATLPRTETGSGSP-NH2 [Compound 17] | 10.43 | 11.30 | 10.88 | – | – | 11.57 | –
H[Aib]HGTFTSDYSILLEEQAAREFIEWLLAGGPSK([AEEA-AEEA-γGlu-C16 diacid])GEASQLSTAALGRLSAELHRLADLPRTETGSGSP-NH2 [Compound 62] | 10.33 | – | 10.94 | 11.65 | 11.38 | – | –
H[Aib]HGTFTSDYSILLEEQAAREFIEWLLAGGPSK([AEEA-AEEA-γGlu-C18 diacid])GAPPPSGGGEASELSTAALGRLSAELHELATLPRTETGSGSP-NH2 [Compound 15] | 9.45 | 11.49 | 9.99 | – | – | 11.85 | –
H[Aib]HGTFTSDYSILLEEQAAREFIEWLLAGGPSK([AEEA-AEEA-γGlu-C18 diacid])GAPPPSGGGEASHLSTAQTARLSAELHQLATLPRTETGSGSP-NH2 [compound 101] | 9.89 | 11.73 | 9.75 | – | – | 11.49 | –
H[Aib]HGTFTSDYSILLEEQAAREFIEWLLAGGPSK([AEEA-AEEA-γGlu-C18 diacid])GAPPPSGGGGASELSTAALGRLSAELHRLATLPRTETGSGSP-NH2 [Compound 14] | 9.59 | 11.23 | 10.12 | – | – | 11.69 | –
H[Aib]HGTFTSDYSILLEEQAAREFIEWLLAGGPSK([AEEA-AEEA-γGlu-C18 diacid])GEASHLSTAQTARLSAELHELATLPRTETGSGSP-NH2 [Compound 36] | 9.65 | 11.71 | 9.68 | – | – | 11.50 | –
H[Aib]HGTFTSDYSILLEEQAAREFIEWLLAGGPSK([AEEA-AEEA-γGlu-C18 diacid])GEASQLSTAALGRLSAELHQLATLPRTETGSGSP-NH2 [Compound 64] | 10.00 | 11.69 | 10.17 | – | – | 11.43 | –
H[Aib]HGTFTSDYSILLEEQAAREFIEWLLAGGPSK([AEEA-AEEA-γGlu-C18 diacid])GEASQLSTAALGRLSAELHTLATLPRTETGSGSP-NH2 [Compound 63] | 10.20 | 11.80 | 10.00 | – | – | 11.32 | –
H[Aib]HGTFTSDYSILLEEQAAREFIEWLLAGGPSK([AEEA-AEEA-γGlu-C20 diacid])GAPPPSGGGEASELSTAALGRLSAELHELATLPRTETGSGSP-NH2 [Compound 16] | 9.31 | 11.37 | 9.62 | – | – | 11.56 | –
H[Aib]HGTFTSDYSILLEEQAAREFIEWLLAGGPSRGEASHLSTAQTQRLSAELHK([AEEA-AEEA-γGlu-C18 diacid])LATLPRTETGSGSP-NH2 [Compound 69] | 11.09 | 11.72 | 10.69 | – | – | 11.46 | –
H[Aib]HGTFTSDYSILLEEQAAREFIEWLLAGGPSSGAGQAPGQAPGASHLSTAQTQRLSAELHRLK([AEEA-AEEA-γGlu-C18 diacid])TLPRTETGSGSP-NH2 [Compound 91] | 11.03 | 11.49 | 10.76 | – | – | 11.42 | –
H[Aib]HGTFTSDYSILLEEQAAREFIEWLLAGGPSSGAGQAPGQAPGASHLSTAQTQRLSAK([AEEA-AEEA-γGlu-C18 diacid])LHRLATLPRTETGSGSP-NH2 [Compound 78] | 10.98 | 11.46 | 10.75 | – | – | 11.39 | –
H[Aib]HGTFTSDYSILLEEQAAREFIEWLLAGGPSSGAGQAPGQAPLASHLSTAQTQRLSAELHK([AEEA-AEEA-γGlu-C18 diacid])LATLPRTETGSGSP-NH2 [Compound 93] | 11.07 | 11.60 | 10.78 | – | – | 11.39 | –
H[Aib]HGTFTSDYSILLEEQAAREFIEWLLAGGPSSGEASHLSTAALGRLSAELHRLK([AEEA-AEEA-γGlu-C18 diacid])TLPRTETGSGSP-NH2 [Compound 89] | 10.51 | 11.19 | 10.53 | – | – | 11.41 | –
H[Aib]HGTFTSDYSILLEEQAAREFIEWLLAGGPSSGEASHLSTAALGRLSAK([AEEA-AEEA-γGlu-C18 diacid])LHRLATLPRTETGSGSP-NH2 [Compound 87] | 10.41 | 11.14 | 10.41 | – | – | 11.07 | –
H[Aib]HGTFTSDYSILLEEQAAREFIEWLLAGGPSSGEASHLSTAQTQRLSAK([AEEA-AEEA-γGlu-C18 diacid])LHRLATLPRTETGSGSP-NH2 [Compound 82] | 10.72 | 11.43 | 10.62 | – | – | 11.46 | –
Y[Aib]EGTFTSDYSILLEEQAAREFIEWLLAGGPSK([AEEA-AEEA-γGlu-C16 diacid])GAPPPSGGGEASELSTAALGRLSAELHELATLPRTETGSGSP-NH2 [compound 10] | 10.37 | 11.68 | 9.61 | – | – | 10.86 | 7
Y[Aib]EGTFTSDYSILLEEQAAREFIEWLLAGGPSK([AEEA-AEEA-γGlu-C16 diacid])GEASELSTAALGRLSAELHELATLPRTETGSGSP-NH2 [Compound 11] | 10.23 | 11.77 | 9.69 | – | – | 10.98 | –
Y[Aib]EGTFTSDYSILLEEQAAREFIEWLLAGGPSK([AEEA-AEEA-γGlu-C18 diacid])GEASELSTAALGRLSAELHELATLPRTETGSGSP-NH2 [Compound 26] | 9.25 | 11.76 | 8.78 | – | – | 10.68 | –
Y[Aib]EGTFTSDYSILLEEQAAREFIEWLLAGGPSK([AEEA-AEEA-γGlu-C18 diacid])GEASHLSTAQTARLSAELHELATLPRTETGSGSP-NH2 [Compound 35] | – | 11.71 | – | – | – | 10.63 | –
Y[Aib]EGTFTSDYSILLEEQAAREFIEWLLAGGPSK([AEEA-AEEA-γGlu-C18 diacid])GGQAPGQAPGEASHLSTAQTQRLSAELHELATLPRTETGSGSP-NH2 [Compound 38] | 9.47 | 11.86 | 8.63 | – | – | 10.92 | –
Y[Aib]EGTFTSDYSILLEEQAAREFIEWLLAGGPSRGEASHLSTAQTQRLSAELHK([AEEA-AEEA-γGlu-C18 diacid])LATLPRTETGSGSP-NH2 [compound 68] | 10.92 | 11.74 | 10.29 | – | – | 10.92 | –
Y[Aib]EGTFTSDYSILLEEQAAREFIEWLLAGGPSSGAGQAPGASHLSTAQTQRLSAELHK([AEEA-AEEA-γGlu-C18 diacid])LATLPRTETGSGSP-NH2 [Compound 97] | 11.08 | 11.64 | 9.96 | – | – | 10.79 | –
Y[Aib]EGTFTSDYSILLEEQAAREFIEWLLAGGPSSGAGQAPGQAPGASHLSTAALGRLSAELHK([AEEA-AEEA-γGlu-C18 diacid])LATLPRTETGSGSP-NH2 [Compound 53] | 10.84 | 11.49 | 10.10 | – | – | 10.63 | –
Y[Aib]EGTFTSDYSILLEEQAAREFIEWLLAGGPSSGAGQAPGQAPGASHLSTAQTQRLSAELHK([AEEA-AEEA-γGlu-C18 diacid])LATLPRTETGSGSP-NH2 [compound 52] | 11.17 | 11.74 | 10.57 | – | – | 10.96 | –
Y[Aib]EGTFTSDYSILLEEQAAREFIEWLLAGGPSSGAGQAPGQAPGASHLSTAQTQRLSAELHRLATLPK([AEEA-AEEA-γGlu-C18 diacid])TETGSGSP-NH2 [Compound 57] | 11.23 | 11.70 | 10.53 | – | – | 10.89 | –
Y[Aib]EGTFTSDYSILLEEQAAREFIEWLLAGGPSSGAGQAPGQAPGASHLSTAQTQRLSAELHRLK([AEEA-AEEA-γGlu-C18 diacid])TLPRTETGSGSP-NH2 [Compound 56] | 11.07 | 11.58 | 10.23 | – | – | 10.74 | –
Y[Aib]EGTFTSDYSILLEEQAAREFIEWLLAGGPSSGAGQAPGQAPGASHLSTAQTQRLSAK([AEEA-AEEA-γGlu-C18 diacid])LHRLATLPRTETGSGSP-NH2 [compound 55] | 10.99 | 11.52 | 10.34 | – | – | 10.64 | –
